Reference: ChEMBL document CHEMBL4265953, “Exploration of novel pyrrolo[2,1-f][1,2,4]triazine derivatives with improved anticancer efficacy as dual inhibitors of c-Met/VEGFR-2” (Eur J Med Chem, 2018)
Converted amounts (≈) assume the structure as drawn.

What was measured:
physchem [1] = assay: physchem
physchem [2] = conditions: n-octanol/water
[3] = Oral bioavailability in Sprague-Dawley rat at 10 mg/kg by LC-MS analysis; assay type: ADME, organism-based; conditions: in vivo
[4] = AUC in Sprague-Dawley rat at 2 mg/kg, iv by LC-MS analysis; assay type: ADME, organism-based; conditions: in vivo
[5] = Tmax in Sprague-Dawley rat at 10 mg/kg, po by LC-MS analysis; assay type: ADME, organism-based; conditions: in vivo
[6] = AUC in Sprague-Dawley rat at 10 mg/kg, po by LC-MS analysis; assay type: ADME, organism-based; conditions: in vivo
[7] = Cmax in Sprague-Dawley rat at 10 mg/kg, po by LC-MS analysis; assay type: ADME, organism-based; set-up: dose 10 mg/kg, route oral; conditions: in vivo
[8] = Clearance in Sprague-Dawley rat at 2 mg/kg, iv by LC-MS analysis; assay type: ADME, organism-based; conditions: in vivo
[9] = Cmax in Sprague-Dawley rat at 2 mg/kg, iv by LC-MS analysis; assay type: ADME, organism-based; set-up: dose 2 mg/kg, route intravenous; conditions: in vivo
[10] = Half life in Sprague-Dawley rat at 10 mg/kg, po by LC-MS analysis; assay type: ADME, organism-based; conditions: in vivo
[11] = Half life in Sprague-Dawley rat at 2 mg/kg, iv by LC-MS analysis; assay type: ADME, organism-based; conditions: in vivo
[12] = octanol/water, 0.5 h

Row | solubility at 1 h (physchem [1]) [µg/mL] | logP at 0.5 h (physchem [2]) | bioavailability [3] [%] | AUC [4] [ng·h/mL] | Tmax [5] [h] | AUC [6] [ng·h/mL] | Cmax [7] [ng/mL] | clearance [8] [mL/min/kg] | Cmax [9] [ng/mL] | half-life [10] [h] | half-life [11] [h] | logP [12] | Structure (SMILES)
1 | < 0.1 | 3.89 |  |  |  |  |  |  |  |  |  |  | COc1cc2nccc(Oc3ccc(NC(=O)C4(C(=O)Nc5ccc(F)cc5)CC4)cc3)c2cc1OC [CABOZANTINIB]
2 | 20.5 (≈ 32.2 µM) | 2.98 | 98.1 | 239 | 5 | 1170 | 129 | 139 | 72.1 | 5 | 2.16 |  | Cc1c(OCC(O)CN2CCN(C)CC2)cn2ncnc(Oc3ccc(NC(=O)C4(C(=O)Nc5ccc(F)cc5)CC4)cc3F)c12 (stereo not given)
3 | 52 |  |  |  |  |  |  |  |  |  |  | 1.89 | COc1cc2nccc(Oc3ccc(NC(=O)C4(C(=O)Nc5ccc(F)cc5)CC4)cc3)c2cc1OC.O=C(O)C[C@H](O)C(=O)O [CABOZANTINIB S-MALATE]
